pIC50: −log10 of the molar value.
What was measured:
PI3K δ = PI3K δ (Homo sapiens (Human), UniProt O00329); test: PI3-Kinase Promega ADP-Glo Max assay; format: biochemical
Description: (§1) Promega ADP-Glo Max assay kit (Cat. No. V7002) was utilized to determine IC50 values for α, β, δ and γ isoforms of human Class I PI3 kinases (Millipore). […] Reactions were incubated at room temperature for 2 hours followed by addition of 25 uL of stop solution. After a 40-minute incubation at room temperature, 50 uL of Promega detection mix was added followed by incubation for 1 hour at room temperature. Plates were then read on Envision plate reader in lunimescence mode. Data was converted to % inhibition using the following equation below:
(§2) [formula] where S is the sample luminescence, Pos is a positive control without added PI3K, Neg is the negative control without added compound. Data was then plotted as % inhibition vs compound concentration.

PI3K β = PI3K β (Homo sapiens (Human), UniProt P42338); test: PI3-Kinase Promega ADP-Glo Max assay; format: biochemical
Description: as §1, §2

[1] = biological target: PI3K-γ in RAW264.7 macrophages (Mus musculus (Mouse), UniProt Q9JHG7); test: Raw264.7 p110 γ assay (PI3K-γ selective cellular assay, C5a-stimulated phospho-AKT); format: cell-based; details: for pIC50: phospho-AKT, read-out: Raw264.7 p110 γ assay IC50
Excerpt: Briefly, serum-starved RAW264.7 cells are stimulated with a known GPCR agonist C5a. […] Cells can be treated with test compounds prior to, simultaneously with, or subsequent to the stimulation by C5a. RAW 264.7 cells respond to the complement component fragment C5a through activation of the C5a receptor, and the C5a receptor activates macrophages and induces cell migration.

PI3K α = PI3K α (Homo sapiens (Human), UniProt P42336); test: PI3-Kinase Promega ADP-Glo Max assay; format: biochemical
PI3K γ = PI3K γ (Homo sapiens (Human), UniProt P48736); test: PI3-Kinase Promega ADP-Glo Max assay; format: biochemical
PI3K-δ in RAJI cells = PI3K-δ in RAJI cells (Homo sapiens (Human), UniProt O00329); test: RAJI p110 δ assay (PI3K-δ selective cellular assay, phospho-AKT); format: cell-based; details: phospho-AKT; read-out: RAJI p110 δ assay IC50
Chain of PI3K-δ in RAJI cells (O00329 whole entry): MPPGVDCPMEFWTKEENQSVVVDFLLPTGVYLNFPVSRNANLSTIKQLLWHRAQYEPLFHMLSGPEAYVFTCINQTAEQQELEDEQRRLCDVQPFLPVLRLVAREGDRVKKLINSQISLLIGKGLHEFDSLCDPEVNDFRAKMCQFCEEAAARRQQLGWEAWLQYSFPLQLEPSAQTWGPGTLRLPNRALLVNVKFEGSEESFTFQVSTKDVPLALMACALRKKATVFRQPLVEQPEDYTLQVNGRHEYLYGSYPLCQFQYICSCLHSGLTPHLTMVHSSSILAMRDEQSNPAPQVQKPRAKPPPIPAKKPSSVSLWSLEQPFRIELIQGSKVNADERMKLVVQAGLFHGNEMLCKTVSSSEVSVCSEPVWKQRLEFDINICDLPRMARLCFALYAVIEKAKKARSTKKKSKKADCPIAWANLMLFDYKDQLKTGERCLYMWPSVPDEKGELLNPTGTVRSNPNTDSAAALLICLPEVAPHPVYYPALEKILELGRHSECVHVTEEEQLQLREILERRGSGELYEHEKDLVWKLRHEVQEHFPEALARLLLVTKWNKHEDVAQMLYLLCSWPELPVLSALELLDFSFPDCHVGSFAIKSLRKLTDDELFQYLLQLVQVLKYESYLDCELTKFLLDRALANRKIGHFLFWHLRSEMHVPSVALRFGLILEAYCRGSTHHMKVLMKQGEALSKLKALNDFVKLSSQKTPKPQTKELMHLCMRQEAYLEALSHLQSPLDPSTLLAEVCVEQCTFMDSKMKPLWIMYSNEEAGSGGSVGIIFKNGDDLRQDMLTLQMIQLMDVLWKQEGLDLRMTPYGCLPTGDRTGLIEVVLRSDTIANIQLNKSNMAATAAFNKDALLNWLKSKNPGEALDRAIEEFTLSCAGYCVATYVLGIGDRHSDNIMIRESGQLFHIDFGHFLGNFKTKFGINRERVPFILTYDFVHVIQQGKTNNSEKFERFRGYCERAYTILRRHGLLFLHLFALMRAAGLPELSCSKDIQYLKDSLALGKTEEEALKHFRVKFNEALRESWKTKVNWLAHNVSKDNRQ
Chain of PI3K-δ in RAJI cells (P27986 whole entry partner): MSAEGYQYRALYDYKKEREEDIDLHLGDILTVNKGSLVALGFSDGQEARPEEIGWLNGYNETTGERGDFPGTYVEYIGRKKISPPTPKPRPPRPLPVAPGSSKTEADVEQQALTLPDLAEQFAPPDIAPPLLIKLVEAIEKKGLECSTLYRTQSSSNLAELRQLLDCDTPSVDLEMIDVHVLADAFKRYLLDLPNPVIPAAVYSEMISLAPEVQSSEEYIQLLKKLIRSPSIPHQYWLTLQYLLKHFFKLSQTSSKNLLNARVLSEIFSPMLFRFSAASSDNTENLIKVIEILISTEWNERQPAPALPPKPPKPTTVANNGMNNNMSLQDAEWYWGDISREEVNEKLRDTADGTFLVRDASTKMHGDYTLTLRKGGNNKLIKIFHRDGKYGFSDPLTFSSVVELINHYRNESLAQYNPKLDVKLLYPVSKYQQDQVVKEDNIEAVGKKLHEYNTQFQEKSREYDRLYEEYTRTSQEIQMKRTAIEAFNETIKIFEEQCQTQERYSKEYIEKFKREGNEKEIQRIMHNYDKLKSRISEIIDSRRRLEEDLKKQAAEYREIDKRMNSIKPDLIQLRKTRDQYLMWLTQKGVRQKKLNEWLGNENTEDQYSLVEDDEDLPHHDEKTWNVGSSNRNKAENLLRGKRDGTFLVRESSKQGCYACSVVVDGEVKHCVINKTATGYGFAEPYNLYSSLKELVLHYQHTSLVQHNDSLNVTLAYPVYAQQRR

Chain of PI3K α (P42336 whole entry): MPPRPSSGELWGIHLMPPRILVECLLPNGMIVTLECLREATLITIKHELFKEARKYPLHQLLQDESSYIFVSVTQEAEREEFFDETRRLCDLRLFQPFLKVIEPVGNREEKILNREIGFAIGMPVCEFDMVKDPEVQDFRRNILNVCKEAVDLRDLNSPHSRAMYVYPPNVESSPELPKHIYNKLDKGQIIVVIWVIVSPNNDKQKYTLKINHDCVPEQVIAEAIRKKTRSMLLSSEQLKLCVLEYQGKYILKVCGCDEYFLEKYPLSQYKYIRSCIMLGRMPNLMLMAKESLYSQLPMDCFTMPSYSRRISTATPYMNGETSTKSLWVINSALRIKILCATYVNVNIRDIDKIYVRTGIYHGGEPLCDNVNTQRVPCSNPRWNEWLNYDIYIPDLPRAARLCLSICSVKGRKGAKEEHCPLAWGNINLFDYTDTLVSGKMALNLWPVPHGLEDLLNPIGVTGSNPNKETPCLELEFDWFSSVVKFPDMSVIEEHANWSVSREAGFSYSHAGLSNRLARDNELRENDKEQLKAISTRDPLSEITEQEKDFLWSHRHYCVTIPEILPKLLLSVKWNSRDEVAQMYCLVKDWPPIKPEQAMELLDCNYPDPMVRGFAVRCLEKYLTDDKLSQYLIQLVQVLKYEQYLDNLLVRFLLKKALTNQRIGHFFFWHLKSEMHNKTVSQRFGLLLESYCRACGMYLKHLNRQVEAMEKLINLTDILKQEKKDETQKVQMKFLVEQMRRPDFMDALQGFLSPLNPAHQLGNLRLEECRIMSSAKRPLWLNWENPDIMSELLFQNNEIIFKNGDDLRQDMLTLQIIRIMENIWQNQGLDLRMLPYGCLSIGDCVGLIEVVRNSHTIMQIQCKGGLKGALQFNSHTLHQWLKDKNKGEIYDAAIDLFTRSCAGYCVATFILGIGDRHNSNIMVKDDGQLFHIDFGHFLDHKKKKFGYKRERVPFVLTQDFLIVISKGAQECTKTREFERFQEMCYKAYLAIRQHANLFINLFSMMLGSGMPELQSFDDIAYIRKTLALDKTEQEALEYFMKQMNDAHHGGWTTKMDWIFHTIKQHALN
Chain of PI3K α (P27986 whole entry partner): as the sequence (P27986 whole entry partner) above
Chain of PI3K δ (O00329 whole entry): as the sequence (O00329 whole entry) above
Chain of PI3K δ (P27986 whole entry partner): as the sequence (P27986 whole entry partner) above
Chain of PI3K β (P42338 whole entry): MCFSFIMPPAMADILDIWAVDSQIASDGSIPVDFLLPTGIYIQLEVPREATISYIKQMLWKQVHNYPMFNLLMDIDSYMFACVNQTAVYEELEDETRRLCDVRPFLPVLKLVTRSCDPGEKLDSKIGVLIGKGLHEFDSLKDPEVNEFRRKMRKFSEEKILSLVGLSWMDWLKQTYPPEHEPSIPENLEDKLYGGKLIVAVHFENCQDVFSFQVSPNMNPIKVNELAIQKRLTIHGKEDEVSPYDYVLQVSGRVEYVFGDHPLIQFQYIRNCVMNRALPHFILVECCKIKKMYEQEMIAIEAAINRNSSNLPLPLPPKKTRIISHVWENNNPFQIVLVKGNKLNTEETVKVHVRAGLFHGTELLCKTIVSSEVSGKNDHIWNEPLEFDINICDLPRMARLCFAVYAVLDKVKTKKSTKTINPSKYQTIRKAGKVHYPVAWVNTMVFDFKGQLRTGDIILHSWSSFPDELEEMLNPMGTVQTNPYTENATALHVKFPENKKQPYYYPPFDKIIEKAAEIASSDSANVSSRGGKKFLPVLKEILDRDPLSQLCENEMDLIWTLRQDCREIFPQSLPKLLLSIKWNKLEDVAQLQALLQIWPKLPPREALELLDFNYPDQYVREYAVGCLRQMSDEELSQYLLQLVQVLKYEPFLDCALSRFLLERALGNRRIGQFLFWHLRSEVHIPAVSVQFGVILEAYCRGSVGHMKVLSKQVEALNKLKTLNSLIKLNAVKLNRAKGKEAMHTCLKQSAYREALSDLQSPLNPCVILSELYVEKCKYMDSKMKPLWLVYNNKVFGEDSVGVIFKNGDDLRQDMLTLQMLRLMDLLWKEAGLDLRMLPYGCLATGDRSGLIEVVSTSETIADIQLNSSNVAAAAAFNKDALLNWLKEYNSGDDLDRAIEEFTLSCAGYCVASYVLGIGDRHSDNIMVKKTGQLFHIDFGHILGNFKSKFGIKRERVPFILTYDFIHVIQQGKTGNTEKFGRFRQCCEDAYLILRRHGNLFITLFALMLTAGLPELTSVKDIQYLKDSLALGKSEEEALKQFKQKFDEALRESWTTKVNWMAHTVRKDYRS
Chain of PI3K β (P27986 whole entry partner): as the sequence (P27986 whole entry partner) above

## Cc1csc(C#Cc2cccc3cc([C@H](C)NC(=O)c4c(N)nn5cccnc45)n(-c4ccccc4)c(=O)c23)n1 [Compound 60]
PI3K δ
  pIC50: 5.00 to 5.30
PI3K β
  pIC50: 5.00 to 5.30
[1]
  RAJIδ/Raw264.7 γ IC50 (selectivity): Y (Y = 50 to <850)
  pIC50: 7.30 to 9.00
PI3K α
  pIC50: 5.00 to 5.30
PI3K γ
  pIC50: 6.30 to 7.00
  PI3K δ/PI3K γ IC50 (selectivity): X (X = 10 to <50)
PI3K-δ in RAJI cells
  pIC50: 6.30 to 7.00

## C[C@H](NC(=O)c1c(N)nn2cccnc12)c1cc2cccc(C#CCN(C)C)c2c(=O)n1-c1ccccc1 [Compound 57]
PI3K δ
  pIC50: 5.00 to 5.30
PI3K β
  pIC50: 5.00 to 5.30
[1]
  RAJIδ/Raw264.7 γ IC50 (selectivity): W (W = >1 to <10)
  pIC50: 7.00 to 7.30
PI3K α
  pIC50: 5.00 to 5.30
PI3K γ
  pIC50: 6.00 to 6.30
  PI3K δ/PI3K γ IC50 (selectivity): W (W = >1 to <10)
PI3K-δ in RAJI cells
  pIC50: 6.30 to 7.00

## C[C@H](NC(=O)c1c(N)nn2cccnc12)c1cc2cccc(C#CC3CCCC3)c2c(=O)n1-c1ccccc1 [Compound 64]
PI3K δ
  pIC50: 5.00 to 5.30
PI3K β
  pIC50: 5.00 to 5.30
[1]
  RAJIδ/Raw264.7 γ IC50 (selectivity): X (X = 10 to <50)
  pIC50: 5.00 to 7.00
PI3K α
  pIC50: 5.00 to 5.30
PI3K γ
  pIC50: 5.30 to 6.00
  PI3K δ/PI3K γ IC50 (selectivity): W (W = >1 to <10)
PI3K-δ in RAJI cells
  pIC50: 5.00 to 6.00

## Cc1c(C#Cc2cccc3cc([C@H](C)NC(=O)c4c(N)nn5cccnc45)n(-c4ccccc4)c(=O)c23)cnn1C [Compound 35]
PI3K δ
  pIC50: 5.00 to 5.30
PI3K β
  pIC50: 5.00 to 5.30
[1]
  RAJIδ/Raw264.7 γ IC50 (selectivity): Y (Y = 50 to <850)
  pIC50: 7.30 to 9.00
PI3K α
  pIC50: 5.00 to 5.30
PI3K γ
  pIC50: 6.30 to 7.00
  PI3K δ/PI3K γ IC50 (selectivity): Y (Y = 50 to <850)
PI3K-δ in RAJI cells
  pIC50: 6.00 to 6.30

## Cc1scnc1C#Cc1cccc2cc([C@H](C)NC(=O)c3c(N)nn4cccnc34)n(-c3ccccc3)c(=O)c12 [Compound 78]
PI3K δ
  pIC50: 5.00 to 5.30
PI3K β
  pIC50: 5.00 to 5.30
[1]
  RAJIδ/Raw264.7 γ IC50 (selectivity): X (X = 10 to <50)
  pIC50: 7.30 to 9.00
PI3K α
  pIC50: 5.00 to 5.30
PI3K γ
  pIC50: 6.30 to 7.00
  PI3K δ/PI3K γ IC50 (selectivity): X (X = 10 to <50)
PI3K-δ in RAJI cells
  pIC50: 6.30 to 7.00

## C[C@H](NC(=O)c1c(N)nn2cccnc12)c1cc2cccc(C#CC3(O)CN4CCC3CC4)c2c(=O)n1-c1ccccc1 (some centres unmarked) [Compound 62]
PI3K δ
  pIC50: 5.00 to 5.30
PI3K β
  pIC50: 5.00 to 5.30
[1]
  RAJIδ/Raw264.7 γ IC50 (selectivity): V (V = 0.1 to 1)
  pIC50: 5.00 to 7.00
PI3K α
  pIC50: 5.00 to 5.30
PI3K γ
  pIC50: 6.00 to 6.30
  PI3K δ/PI3K γ IC50 (selectivity): X (X = 10 to <50)
PI3K-δ in RAJI cells
  pIC50: 5.00 to 6.00

## CCOC(C#Cc1cccc2cc([C@H](C)NC(=O)c3c(N)nn4cccnc34)n(-c3ccccc3)c(=O)c12)OCC [Compound 34]
PI3K δ
  pIC50: 5.00 to 5.30
PI3K β
  pIC50: 5.00 to 5.30
[1]
  RAJIδ/Raw264.7 γ IC50 (selectivity): X (X = 10 to <50)
  pIC50: 7.00 to 7.30
PI3K α
  pIC50: 5.00 to 5.30
PI3K γ
  pIC50: 6.00 to 6.30
  PI3K δ/PI3K γ IC50 (selectivity): X (X = 10 to <50)
PI3K-δ in RAJI cells
  pIC50: 6.00 to 6.30

## C[C@H](NC(=O)c1c(N)nn2cccnc12)c1cc2cccc(C#C[C@@H](C)O)c2c(=O)n1-c1ccccc1 [Compound 15]
PI3K δ
  pIC50: 6.00 to 6.30
PI3K β
  pIC50: 5.00 to 5.30
[1]
  RAJIδ/Raw264.7 γ IC50 (selectivity): W (W = >1 to <10)
  pIC50: 7.30 to 9.00
PI3K α
  pIC50: 5.00 to 5.30
PI3K γ
  pIC50: 7.00 to 9.00
  PI3K δ/PI3K γ IC50 (selectivity): X (X = 10 to <50)
PI3K-δ in RAJI cells
  pIC50: 6.30 to 7.00

## C[C@H](NC(=O)c1c(N)nn2cccnc12)c1cc2cccc(C#Cc3ccccn3)c2c(=O)n1-c1ccccc1 [Compound 32]
PI3K δ
  pIC50: 5.00 to 5.30
PI3K β
  pIC50: 5.00 to 5.30
[1]
  RAJIδ/Raw264.7 γ IC50 (selectivity): Y (Y = 50 to <850)
  pIC50: 7.30 to 9.00
PI3K α
  pIC50: 5.00 to 5.30
PI3K γ
  pIC50: 6.30 to 7.00
  PI3K δ/PI3K γ IC50 (selectivity): Y (Y = 50 to <850)
PI3K-δ in RAJI cells
  pIC50: 6.00 to 6.30

## C#Cc1cccc2nc([C@H](C)NC(=O)c3nccnc3N)n(-c3ccc(F)cc3)c(=O)c12 [Compound 49]
PI3K δ
  pIC50: 5.30 to 6.00
PI3K β
  pIC50: 5.30 to 6.00
[1]
  RAJIδ/Raw264.7 γ IC50 (selectivity): V (V = 0.1 to 1)
  pIC50: 7.30 to 9.00
PI3K α
  pIC50: 5.00 to 5.30
PI3K γ
  pIC50: 7.00 to 9.00
  PI3K δ/PI3K γ IC50 (selectivity): X (X = 10 to <50)
PI3K-δ in RAJI cells
  pIC50: 7.00 to 9.00
